Here are results for 3 compounds from ChEMBL document CHEMBL1201862, “PubChem BioAssay data set” (2004).

One assay has as its target T1, Hexokinase-1 (Homo sapiens, UniProt P19367).
T1 sequence (P19367 whole entry): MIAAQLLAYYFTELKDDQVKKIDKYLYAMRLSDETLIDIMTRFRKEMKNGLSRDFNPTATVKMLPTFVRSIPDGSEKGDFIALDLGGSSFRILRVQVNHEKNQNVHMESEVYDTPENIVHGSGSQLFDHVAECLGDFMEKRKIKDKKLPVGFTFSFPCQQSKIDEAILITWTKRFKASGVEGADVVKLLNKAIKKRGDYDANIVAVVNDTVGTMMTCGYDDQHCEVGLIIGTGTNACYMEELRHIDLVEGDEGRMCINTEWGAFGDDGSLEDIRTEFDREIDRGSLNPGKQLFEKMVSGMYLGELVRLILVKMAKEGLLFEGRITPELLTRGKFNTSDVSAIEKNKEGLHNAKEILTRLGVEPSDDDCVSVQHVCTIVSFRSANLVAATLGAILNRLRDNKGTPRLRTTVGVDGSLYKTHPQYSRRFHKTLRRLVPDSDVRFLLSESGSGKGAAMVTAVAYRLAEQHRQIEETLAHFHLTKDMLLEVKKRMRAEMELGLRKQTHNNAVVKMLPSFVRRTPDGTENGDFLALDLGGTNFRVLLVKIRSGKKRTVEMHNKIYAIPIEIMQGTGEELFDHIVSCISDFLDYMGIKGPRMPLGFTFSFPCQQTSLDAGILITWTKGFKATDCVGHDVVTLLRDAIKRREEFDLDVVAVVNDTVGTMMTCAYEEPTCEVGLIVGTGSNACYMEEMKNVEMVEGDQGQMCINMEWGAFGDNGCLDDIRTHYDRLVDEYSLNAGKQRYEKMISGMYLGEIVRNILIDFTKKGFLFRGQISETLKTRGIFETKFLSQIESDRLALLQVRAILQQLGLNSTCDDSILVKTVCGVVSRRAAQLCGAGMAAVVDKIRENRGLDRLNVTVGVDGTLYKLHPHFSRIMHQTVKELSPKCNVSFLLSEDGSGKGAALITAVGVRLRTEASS
The experiment in a line: SAR analysis of small molecule inhibitors of hexokinase domain containing I (HKDC1) in the hexokinase 1 selectivity assay. [Related pubchem assays (depositor defined):AID493160, AID493190]. The format is functional.

Another assay has as its target T2, Hexokinase HKDC1 (Homo sapiens, UniProt Q2TB90).
T2 sequence (Q2TB90 whole entry): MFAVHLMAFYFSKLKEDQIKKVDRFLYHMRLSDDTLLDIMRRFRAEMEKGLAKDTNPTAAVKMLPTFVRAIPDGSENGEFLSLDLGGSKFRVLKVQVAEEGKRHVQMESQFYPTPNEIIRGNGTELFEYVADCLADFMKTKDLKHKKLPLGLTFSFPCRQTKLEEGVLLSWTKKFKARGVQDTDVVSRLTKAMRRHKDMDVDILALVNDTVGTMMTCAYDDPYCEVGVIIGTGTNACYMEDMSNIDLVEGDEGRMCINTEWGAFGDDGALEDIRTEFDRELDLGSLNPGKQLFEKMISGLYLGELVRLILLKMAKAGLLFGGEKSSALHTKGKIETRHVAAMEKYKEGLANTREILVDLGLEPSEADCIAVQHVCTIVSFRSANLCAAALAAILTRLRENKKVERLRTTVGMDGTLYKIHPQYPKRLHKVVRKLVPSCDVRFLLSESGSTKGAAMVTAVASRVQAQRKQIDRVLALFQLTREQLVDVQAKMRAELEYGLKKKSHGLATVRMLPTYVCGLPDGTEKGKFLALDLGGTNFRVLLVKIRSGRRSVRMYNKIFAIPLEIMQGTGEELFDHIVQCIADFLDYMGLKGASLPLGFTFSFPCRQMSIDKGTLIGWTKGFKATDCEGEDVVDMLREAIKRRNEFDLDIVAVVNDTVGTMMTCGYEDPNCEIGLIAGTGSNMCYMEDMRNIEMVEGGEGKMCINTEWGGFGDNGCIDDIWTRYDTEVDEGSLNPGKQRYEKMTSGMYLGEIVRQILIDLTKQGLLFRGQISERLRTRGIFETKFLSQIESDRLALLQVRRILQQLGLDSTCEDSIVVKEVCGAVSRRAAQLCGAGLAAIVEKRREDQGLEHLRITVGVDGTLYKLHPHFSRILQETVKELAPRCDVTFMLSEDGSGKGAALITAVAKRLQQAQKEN
The experiment in a line: SAR analysis of small molecule inhibitors of hexokinase domain containing I (HKDC1). [Related pubchem assays (depositor defined):AID493160, AID493190]. The format is functional.

Assay [1] addresses T3, Short transient receptor potential channel 4 (Mus musculus, UniProt Q9QUQ5).
T3 sequence (Q9QUQ5 whole entry): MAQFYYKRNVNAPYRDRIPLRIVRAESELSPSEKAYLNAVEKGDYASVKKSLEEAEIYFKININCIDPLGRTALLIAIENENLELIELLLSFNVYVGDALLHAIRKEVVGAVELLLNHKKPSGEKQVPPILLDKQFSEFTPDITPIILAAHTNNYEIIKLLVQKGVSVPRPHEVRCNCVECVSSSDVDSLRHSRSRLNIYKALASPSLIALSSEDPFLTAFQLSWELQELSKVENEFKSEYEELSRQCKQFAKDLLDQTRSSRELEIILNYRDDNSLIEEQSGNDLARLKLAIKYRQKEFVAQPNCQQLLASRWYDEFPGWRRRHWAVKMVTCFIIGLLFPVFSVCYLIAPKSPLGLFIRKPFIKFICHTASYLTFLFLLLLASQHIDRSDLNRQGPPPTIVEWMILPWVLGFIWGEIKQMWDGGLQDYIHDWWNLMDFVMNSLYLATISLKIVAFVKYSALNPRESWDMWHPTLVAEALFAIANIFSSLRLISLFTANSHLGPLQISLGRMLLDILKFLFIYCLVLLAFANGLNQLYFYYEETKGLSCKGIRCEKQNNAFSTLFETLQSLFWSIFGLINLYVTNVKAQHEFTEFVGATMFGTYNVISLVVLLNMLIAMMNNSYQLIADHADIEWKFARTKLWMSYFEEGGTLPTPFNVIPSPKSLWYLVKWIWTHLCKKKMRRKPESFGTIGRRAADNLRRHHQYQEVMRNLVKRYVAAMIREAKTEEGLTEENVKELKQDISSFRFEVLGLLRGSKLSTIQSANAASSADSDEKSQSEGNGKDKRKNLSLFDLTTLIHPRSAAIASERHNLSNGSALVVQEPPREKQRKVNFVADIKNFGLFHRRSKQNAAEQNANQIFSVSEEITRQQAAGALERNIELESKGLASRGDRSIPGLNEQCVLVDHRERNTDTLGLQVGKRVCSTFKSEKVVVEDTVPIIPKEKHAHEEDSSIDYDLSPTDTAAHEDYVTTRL
The assay can be described thus: calcium entry via TRPC4 opening agents – cell-based, HEK293 TRPC4/mu-opioid, Fluo-4 calcium, dose response (AID 434937). It counts as functional.

Assay [2] addresses Delta-type opioid receptor (Homo sapiens, UniProt P41143). The assay can be described thus: Counterscreen for agonists of heterodimerization of the mu 1 (OPRM1) and delta 1 (OPRD1) opioid receptors: Luminescence-based cell-based high throughput dose response assay to identify agonists of OPRD1 homodimerization. [Related pubchem assays (depositor defined):AID504326, AID504355, AID504692, AID504904, AID504905]. It counts as functional. (In general: Counterscreens check selectivity or assay interference.)

Another assay deals with Mu-type opioid receptor (Homo sapiens, UniProt P35372). The experiment in a line: Counterscreen for agonists of heterodimerization of the mu 1 (OPRM1) and delta 1 (OPRD1) opioid receptors: Luminescence-based cell-based high throughput dose response assay to identify agonists of OPRM1 homodimerization. It counts as functional.
Assay [3] concerns the target Opioid receptors; mu & delta (Homo sapiens, UniProt P41143+P35372). The experiment in a line: OPRM1-OPRD1 heterodimer agonist potency – cell-based, luminescence, dose response (AID 588407). It counts as functional.
The target of assay [4] is 5-hydroxytryptamine receptor 5A (Homo sapiens, UniProt P47898). The assay can be described thus: Counterscreen for agonists of OPRM1-OPRD1 heterodimerization: luminescence-based cell-based high throughput dose response assay to identify agonists of 5-hydroxytryptamine (serotonin) 5A receptor (HTR5A). [Related pubchem assays (depositor defined):AID504326, AID504355, AID504692, AID504904, AID504905]. The format is functional.

Assay [5] can be described thus: NIH-3T3 fibroblast cytotoxicity, dose response, cytotoxicity control, cell-based, fluorescence, Alamar Blue, secondary assay (AID 2327).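 Also: NIH-3T3 mouse fibroblasts cultured with fluconazole at 8 µg/mL.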 It counts as functional. A general note: Alamar Blue is a resazurin reagent that responds to reducing activity.
A short description of assay [6]: cells. The format is functional, cell-based.
A short description of assay [7]: fluconazole-exposed Candida albicans growth modulators – fluorescence, retest, confirmation (AID 2467). The format is functional, cell-based.
Assay [8] is described as follows: cells. The format is functional, cell-based. This is another data set of the same source.
The target of assay [9] is T4, Serine/threonine-protein phosphatase (Candida dubliniensis (strain CD36 / CBS 7987 / NCPF 3949 / NRRLY-17841) (Yeast), UniProt B9W6M3).
T4 sequence (B9W6M3 whole entry): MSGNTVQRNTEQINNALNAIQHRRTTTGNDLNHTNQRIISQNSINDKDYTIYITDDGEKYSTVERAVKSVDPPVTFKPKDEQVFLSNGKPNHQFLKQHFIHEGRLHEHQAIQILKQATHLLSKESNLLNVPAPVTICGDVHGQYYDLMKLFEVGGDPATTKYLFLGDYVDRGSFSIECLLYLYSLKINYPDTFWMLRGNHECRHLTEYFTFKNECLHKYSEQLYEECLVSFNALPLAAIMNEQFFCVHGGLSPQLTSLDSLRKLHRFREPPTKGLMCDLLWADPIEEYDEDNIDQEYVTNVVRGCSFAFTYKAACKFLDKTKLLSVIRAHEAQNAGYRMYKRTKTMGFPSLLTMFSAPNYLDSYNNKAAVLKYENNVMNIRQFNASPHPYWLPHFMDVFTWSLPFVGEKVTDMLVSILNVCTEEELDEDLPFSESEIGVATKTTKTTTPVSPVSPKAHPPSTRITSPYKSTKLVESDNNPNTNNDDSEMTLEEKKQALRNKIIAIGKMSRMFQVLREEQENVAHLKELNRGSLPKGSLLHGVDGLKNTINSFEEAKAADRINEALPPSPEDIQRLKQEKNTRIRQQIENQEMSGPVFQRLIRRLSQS
The assay can be described thus: blockers of CaCl2-induced CDRE-lacZ signaling – S. cerevisiae, luminescence, secondary, dose response (AID 2388).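 Also: yeast reporter cells carrying a calcineurin-responsive lacZ construct stimulated with calcium chloride; luminescent beta-galactosidase reporter signal in whole cells rather than isolated phosphatase activity; potency for inhibition where a drop in reporter signal means calcineurin blockade.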 The format is functional, cell-based.

A short description of assay [10]: HEK-293T viability loss after treatment – luminescence, T-cell screen hits, cytotoxicity control for TCR NF-kB inhibitor project, dose response (AID 489026).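 Also: cells exposed to compound about 14 hours before the viability readout.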 The format is functional, cell-based.
The next assay relates to HEK293. The assay can be described thus: EBV LMP1 TES2 canonical NF-kB signalling blockers – cell-based, HEK293, luciferase, cherry-pick, dose response (AID 588343). It counts as functional. The conditions noted are these: Homo sapiens.
Assay [11] deals with Dual specificity tyrosine-phosphorylation-regulated kinase 1A (Rattus norvegicus, UniProt Q63470). The format is biochemical, Homo sapiens.
For assay [12], the target named is ATP-dependent molecular chaperone HSP82 (Candida albicans (strain WO-1) (Yeast), UniProt C4YTQ8). The assay can be described thus: steroid-induced GRE reporter decrease in yeast – S. cerevisiae, luminescence, Hsp90 inhibitor project, dose response (AID 2400).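 Also: beta-galactosidase luminescence from glucocorticoid response element reporter as proxy for Hsp90 function; inhibitor potency where signal loss means Hsp90 inhibition.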 It counts as functional, cell-based.
In assay [13] the target is Photoreceptor-specific nuclear receptor (Homo sapiens, UniProt Q9Y5X4). The format is functional, cell-based.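 Also: CHO-S cells with Gal4-NCOR and VP16-NR2E3 two-hybrid luciferase reporter.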
Assay [14] addresses SWI/SNF-related matrix-associated actin-dependent regulator of chromatin subfamily A member 2 (Homo sapiens, UniProt P51531). The experiment in a line: Luminescence-based cell-based high throughput dose response assay to identify activators of the function of SWI/SNF related, matrix associated, actin dependent regulator of chromatin, subfamily a, member 2 (SMARCA2, BRM). The format is functional.

Assay [15] can be described thus: Counterscreen for activators of the function of SWI/SNF related, matrix associated, actin dependent regulator of chromatin, subfamily a, member 2 (SMARCA2, BRM): Luminescence-based cell-based high throughput dose response assay to identify non-selective compounds using the VP16 reporter assay. It counts as functional.

The source made the active and inactive calls.

Chain of 5-hydroxytryptamine receptor 5A (P47898 whole entry): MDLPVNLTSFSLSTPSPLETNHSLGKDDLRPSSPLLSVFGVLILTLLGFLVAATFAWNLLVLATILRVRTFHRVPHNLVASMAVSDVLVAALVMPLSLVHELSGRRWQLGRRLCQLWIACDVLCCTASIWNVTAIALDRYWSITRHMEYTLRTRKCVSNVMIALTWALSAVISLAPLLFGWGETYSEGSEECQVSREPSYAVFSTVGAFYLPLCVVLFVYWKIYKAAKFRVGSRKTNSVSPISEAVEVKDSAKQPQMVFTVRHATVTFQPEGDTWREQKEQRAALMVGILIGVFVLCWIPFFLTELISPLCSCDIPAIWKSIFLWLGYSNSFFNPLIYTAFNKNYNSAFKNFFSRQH
Chain of Delta-type opioid receptor (P41143 whole entry): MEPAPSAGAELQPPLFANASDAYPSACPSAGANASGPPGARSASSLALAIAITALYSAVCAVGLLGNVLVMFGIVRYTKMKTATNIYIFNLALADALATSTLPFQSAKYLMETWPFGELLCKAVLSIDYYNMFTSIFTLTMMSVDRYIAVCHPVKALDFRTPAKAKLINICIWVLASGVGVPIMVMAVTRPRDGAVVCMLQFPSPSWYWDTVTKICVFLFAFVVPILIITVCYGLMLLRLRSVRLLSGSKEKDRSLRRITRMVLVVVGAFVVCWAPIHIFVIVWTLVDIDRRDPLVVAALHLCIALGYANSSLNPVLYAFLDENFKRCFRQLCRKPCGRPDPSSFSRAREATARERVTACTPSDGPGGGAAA
Chain of Photoreceptor-specific nuclear receptor (Q9Y5X4 whole entry, the tested form may be a part): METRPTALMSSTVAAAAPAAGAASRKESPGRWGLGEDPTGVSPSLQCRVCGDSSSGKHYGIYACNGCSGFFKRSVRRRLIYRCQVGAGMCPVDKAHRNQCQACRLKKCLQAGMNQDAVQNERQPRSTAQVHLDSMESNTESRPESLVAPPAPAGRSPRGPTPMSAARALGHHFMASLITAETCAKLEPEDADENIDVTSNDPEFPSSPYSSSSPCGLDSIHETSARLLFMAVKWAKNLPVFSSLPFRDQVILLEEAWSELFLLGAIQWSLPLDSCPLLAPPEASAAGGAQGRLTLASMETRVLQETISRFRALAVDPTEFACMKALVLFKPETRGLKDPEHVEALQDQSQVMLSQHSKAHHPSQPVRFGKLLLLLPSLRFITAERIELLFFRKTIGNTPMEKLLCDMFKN
Chain of Mu-type opioid receptor (P35372 whole entry): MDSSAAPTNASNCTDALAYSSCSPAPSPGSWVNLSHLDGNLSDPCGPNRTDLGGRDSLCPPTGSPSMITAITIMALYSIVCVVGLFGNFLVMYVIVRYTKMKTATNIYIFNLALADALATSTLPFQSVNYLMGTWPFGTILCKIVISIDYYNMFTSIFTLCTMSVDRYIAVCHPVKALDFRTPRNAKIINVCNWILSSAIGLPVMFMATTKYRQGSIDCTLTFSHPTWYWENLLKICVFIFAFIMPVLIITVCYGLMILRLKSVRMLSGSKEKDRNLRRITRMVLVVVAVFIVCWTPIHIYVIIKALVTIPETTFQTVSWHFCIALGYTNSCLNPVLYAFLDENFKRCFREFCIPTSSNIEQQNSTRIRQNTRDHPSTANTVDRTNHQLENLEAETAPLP
Chain of ATP-dependent molecular chaperone HSP82 (C4YTQ8 whole entry, the tested form may be a part): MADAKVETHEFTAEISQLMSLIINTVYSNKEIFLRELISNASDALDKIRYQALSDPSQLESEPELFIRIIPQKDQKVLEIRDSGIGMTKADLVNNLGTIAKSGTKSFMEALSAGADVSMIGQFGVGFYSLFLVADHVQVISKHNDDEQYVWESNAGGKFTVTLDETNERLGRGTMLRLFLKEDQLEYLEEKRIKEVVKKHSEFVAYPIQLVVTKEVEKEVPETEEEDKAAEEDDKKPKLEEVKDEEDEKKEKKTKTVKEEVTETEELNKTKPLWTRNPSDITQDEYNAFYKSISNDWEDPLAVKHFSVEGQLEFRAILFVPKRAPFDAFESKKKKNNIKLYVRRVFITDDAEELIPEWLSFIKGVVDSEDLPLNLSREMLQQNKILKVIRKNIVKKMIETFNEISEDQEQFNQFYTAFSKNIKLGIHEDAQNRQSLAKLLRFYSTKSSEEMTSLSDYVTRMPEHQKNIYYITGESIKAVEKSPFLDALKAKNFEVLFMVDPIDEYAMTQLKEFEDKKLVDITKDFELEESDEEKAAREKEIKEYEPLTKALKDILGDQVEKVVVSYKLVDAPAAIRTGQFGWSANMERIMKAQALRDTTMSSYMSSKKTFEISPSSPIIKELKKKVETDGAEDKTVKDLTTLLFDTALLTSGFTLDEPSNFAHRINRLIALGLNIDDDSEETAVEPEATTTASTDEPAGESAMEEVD
Chain of SWI/SNF-related matrix-associated actin-dependent regulator of chromatin subfamily A member 2 (P51531 whole entry): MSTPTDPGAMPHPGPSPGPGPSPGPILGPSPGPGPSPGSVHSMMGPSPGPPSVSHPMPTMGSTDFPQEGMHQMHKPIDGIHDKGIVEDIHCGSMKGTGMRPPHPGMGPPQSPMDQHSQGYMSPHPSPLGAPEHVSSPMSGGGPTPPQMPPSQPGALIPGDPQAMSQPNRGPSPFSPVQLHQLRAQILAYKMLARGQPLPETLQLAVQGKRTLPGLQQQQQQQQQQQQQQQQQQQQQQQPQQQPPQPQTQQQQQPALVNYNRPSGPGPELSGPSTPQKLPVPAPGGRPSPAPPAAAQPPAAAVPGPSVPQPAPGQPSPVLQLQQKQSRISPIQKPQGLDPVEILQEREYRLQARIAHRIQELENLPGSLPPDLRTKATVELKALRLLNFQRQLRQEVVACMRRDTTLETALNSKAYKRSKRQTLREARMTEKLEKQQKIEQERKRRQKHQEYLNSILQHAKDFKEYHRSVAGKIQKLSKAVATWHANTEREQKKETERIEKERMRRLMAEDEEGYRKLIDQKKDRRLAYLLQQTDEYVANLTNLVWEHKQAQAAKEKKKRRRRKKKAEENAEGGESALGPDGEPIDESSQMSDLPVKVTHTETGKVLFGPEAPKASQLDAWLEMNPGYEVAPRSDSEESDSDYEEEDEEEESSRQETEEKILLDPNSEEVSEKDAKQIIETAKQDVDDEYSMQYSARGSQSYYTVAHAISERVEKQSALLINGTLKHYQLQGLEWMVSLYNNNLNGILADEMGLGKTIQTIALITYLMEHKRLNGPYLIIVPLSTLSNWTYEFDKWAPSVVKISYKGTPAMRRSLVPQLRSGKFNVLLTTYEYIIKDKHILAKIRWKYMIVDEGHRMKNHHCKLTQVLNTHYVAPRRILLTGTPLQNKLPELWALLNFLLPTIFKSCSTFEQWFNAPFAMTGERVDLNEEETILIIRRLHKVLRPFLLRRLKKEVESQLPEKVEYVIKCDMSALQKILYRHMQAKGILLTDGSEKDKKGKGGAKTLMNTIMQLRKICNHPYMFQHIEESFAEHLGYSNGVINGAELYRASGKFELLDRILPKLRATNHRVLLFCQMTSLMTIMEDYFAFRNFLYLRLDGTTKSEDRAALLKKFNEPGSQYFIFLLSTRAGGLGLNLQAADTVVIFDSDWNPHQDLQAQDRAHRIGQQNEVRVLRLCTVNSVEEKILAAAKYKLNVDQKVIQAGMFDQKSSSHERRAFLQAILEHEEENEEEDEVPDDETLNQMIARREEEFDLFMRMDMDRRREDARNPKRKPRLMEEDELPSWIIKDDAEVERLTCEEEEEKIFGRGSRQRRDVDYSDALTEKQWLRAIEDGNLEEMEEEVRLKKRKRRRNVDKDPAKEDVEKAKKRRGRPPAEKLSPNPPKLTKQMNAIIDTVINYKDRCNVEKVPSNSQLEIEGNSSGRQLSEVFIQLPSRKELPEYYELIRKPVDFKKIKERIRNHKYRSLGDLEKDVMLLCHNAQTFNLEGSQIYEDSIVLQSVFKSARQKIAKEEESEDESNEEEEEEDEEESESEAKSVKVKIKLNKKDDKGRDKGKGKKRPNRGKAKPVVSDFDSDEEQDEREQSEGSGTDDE

Usually IC50 stands for the concentration at which inhibition is half-maximal. On to `O=c1c2ccccc2nc(/C=C/c2cccc(O)c2)n1Cc1ccccc1`, for which the IC50 on Hexokinase-1 and on Hexokinase HKDC1 was > 80 µM (inactive) in each case.

As usually defined, the EC50 is the concentration at which the effect is half-maximal. On to `Cc1ccc(-n2cc(CNC(C)c3cnn(C)c3C)c(-c3ccc(F)cc3)n2)cc1` (centres undefined), for which the EC50 in [1] is 0.376 µM (active); in assay [2], 50 µM (inactive); at Mu-type opioid receptor, 13 µM (inactive); in assay [3], above 0.1268 µM; in assay [4], > 92.5 µM (inactive).

By AC50 is commonly meant the midpoint of the concentration-response curve, whichever way the signal moves. Take `COc1ccc2c(c1)/C(=C/c1cnc[nH]1)C(=O)N2` [SU-9516]: the EC50 in assay [5] is > 160 µM (inactive); in “cells [6]”, > 350 µM (not active); in assay [7] it was 0.956 µM (active); in the assay “cells [8]” it was > 350 µM (not active); in assay [9], > 180 µM (inactive); in [12], > 160 µM (inactive). For the same compound, the EC50 in [14] and in assay [15] was > 91.2 µM (inactive) each time. Moreover, the IC50 is 71.8 µM (inactive) in assay [10] and 1.19 µM (active) in assay [13]. Besides, the AC50 was 34.2 µM (active) in the assay with HEK293 and 0.995 µM (active) in [11].
